Source: ChEMBL document CHEMBL5055650, “4-Acyl Pyrrole Capped HDAC Inhibitors: A New Scaffold for Hybrid Inhibitors of BET Proteins and Histone Deacetylases as Antileukemia Drug Leads” (J Med Chem, 2021)
Calls of active or inactive are those of the source. The calls are words filed in the database; no cut-off is given here.

Columns and labels:
Histone deacetylase 2 = Histone deacetylase 2 (Homo sapiens, UniProt Q92769); test: Inhibition of human HDAC2 assessed as target activity using fluorogenic substrate ZMAL for 90 min by microplate reader at 355nm
Sequence of Histone deacetylase 2 (Q92769 whole entry, the tested form may be a part): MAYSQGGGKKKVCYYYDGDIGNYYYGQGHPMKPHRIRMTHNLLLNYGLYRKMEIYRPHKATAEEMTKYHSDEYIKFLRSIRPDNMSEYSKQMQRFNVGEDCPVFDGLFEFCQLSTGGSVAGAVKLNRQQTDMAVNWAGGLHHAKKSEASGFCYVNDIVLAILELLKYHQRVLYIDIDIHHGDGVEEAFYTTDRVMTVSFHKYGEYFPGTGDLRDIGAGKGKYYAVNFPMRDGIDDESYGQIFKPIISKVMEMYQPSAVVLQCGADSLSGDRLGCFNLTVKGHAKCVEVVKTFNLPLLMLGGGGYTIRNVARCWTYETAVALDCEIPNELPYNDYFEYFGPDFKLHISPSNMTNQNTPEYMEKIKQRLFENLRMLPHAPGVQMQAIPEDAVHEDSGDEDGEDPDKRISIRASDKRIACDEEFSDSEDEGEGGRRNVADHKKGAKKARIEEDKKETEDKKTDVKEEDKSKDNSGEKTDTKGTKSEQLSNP

[1] = target: T1, Bromodomain-containing protein 3 (Homo sapiens, UniProt Q15059); test: Binding affinity to human BRD3 domain 1 assessed as dissociation constant by isothermal titration calorimetry assay
T1 sequence (Q15059 whole entry, the tested form may be a part): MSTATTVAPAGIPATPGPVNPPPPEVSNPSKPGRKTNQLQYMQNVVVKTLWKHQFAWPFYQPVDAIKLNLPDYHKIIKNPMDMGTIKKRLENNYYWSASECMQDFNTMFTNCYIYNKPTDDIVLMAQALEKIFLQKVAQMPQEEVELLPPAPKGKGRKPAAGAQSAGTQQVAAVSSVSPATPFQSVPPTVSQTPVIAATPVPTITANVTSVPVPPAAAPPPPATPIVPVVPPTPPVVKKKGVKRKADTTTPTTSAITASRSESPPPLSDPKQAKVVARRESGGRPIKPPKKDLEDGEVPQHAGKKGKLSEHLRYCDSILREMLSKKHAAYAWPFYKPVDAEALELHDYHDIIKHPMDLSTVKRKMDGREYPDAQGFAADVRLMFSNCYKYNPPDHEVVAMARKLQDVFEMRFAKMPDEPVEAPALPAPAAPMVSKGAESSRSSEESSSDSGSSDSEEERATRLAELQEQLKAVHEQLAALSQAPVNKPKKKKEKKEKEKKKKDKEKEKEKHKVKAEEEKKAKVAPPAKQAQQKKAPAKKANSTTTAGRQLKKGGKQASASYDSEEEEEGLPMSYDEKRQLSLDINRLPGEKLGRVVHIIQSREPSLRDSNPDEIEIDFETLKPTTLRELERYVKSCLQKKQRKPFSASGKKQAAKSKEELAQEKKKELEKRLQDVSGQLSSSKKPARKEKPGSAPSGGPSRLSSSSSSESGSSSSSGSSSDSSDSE

TALL-1 = test: Anticancer activity against human TALL-1 cells assessed as cell growth inhibition by CellTiter-Glo luminescent assay; format: functional, cell-based
HPBALL [2] = test: Induction of apoptosis in human HPBALL cells assessed as increase in caspase3/7 activity at 5 uM after 48 hrs by luminescent based Glo assay; format: functional, cell-based
HL-60 [3] = test: Cytotoxicity against human HL-60 cells assessed as cell viability at 5 uM by CellTiter-Glo luminescent assay; format: functional; conditions: read-out: Activity
Histone deacetylase 3 = Histone deacetylase 3 (Homo sapiens, UniProt O15379); test: Inhibition of human HDAC3 assessed as target activity using fluorogenic substrate ZMAL for 90 min by microplate reader at 355nm
Sequence of Histone deacetylase 3 (O15379 whole entry, the tested form may be a part): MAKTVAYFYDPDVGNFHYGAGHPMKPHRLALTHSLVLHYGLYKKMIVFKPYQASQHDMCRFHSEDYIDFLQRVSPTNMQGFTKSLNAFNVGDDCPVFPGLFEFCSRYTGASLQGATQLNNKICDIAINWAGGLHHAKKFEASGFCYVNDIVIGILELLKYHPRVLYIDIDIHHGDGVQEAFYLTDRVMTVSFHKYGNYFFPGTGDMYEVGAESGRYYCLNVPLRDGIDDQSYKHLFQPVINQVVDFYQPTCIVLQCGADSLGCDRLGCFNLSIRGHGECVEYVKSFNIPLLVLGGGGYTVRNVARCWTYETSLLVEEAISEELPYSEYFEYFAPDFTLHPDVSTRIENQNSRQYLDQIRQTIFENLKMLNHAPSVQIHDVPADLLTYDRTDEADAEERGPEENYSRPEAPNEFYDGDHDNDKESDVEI

[4] = target: Bromodomain-containing protein 2 (Homo sapiens, UniProt P25440); test: Binding affinity to human BRD2 domain 2 assessed as dissociation constant by isothermal titration calorimetry assay
Sequence of Bromodomain-containing protein 2 (P25440 whole entry, the tested form may be a part): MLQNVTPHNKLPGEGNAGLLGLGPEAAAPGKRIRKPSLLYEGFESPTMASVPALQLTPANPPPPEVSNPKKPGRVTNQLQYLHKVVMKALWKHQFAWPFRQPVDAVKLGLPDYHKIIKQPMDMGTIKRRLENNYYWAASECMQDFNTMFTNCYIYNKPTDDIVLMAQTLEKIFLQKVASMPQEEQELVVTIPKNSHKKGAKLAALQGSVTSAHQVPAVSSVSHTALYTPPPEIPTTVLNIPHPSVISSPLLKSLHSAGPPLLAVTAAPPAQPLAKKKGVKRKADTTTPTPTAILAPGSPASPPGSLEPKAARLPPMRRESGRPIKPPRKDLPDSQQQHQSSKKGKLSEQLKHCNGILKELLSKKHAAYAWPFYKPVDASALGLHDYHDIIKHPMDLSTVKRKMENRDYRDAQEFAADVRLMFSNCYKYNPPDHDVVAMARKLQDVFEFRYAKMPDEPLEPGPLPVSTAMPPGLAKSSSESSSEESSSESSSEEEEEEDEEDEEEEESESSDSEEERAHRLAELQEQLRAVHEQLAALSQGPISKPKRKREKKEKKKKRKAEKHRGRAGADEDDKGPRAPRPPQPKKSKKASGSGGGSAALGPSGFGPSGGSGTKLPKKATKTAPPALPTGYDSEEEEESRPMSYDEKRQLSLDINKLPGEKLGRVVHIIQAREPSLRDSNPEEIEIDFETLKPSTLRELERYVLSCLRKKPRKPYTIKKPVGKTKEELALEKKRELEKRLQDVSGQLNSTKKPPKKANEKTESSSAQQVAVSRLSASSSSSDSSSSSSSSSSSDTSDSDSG

[5] = target: T2, Histone deacetylase (Homo sapiens) (UniProt Q13547+O15379+Q9UBN7+Q92769+Q9UQL6+Q8WUI4+Q9BY41+Q96DB2+P56524+Q9UKV0+Q969S8); test: Inhibition of HDAC in human K562 cells assessed as increase in acetylated histone H3 measured after 48 hrs by Western blot analysis; format: cell-based
HPBALL [6] = test: Induction of apoptosis in human HPBALL cells assessed as decrease in MYC protein levels at 5 uM after 24 hrs by Western blot analysis; format: functional, cell-based
[7] = target: T1, Bromodomain-containing protein 3; test: Binding affinity to human BRD3 domain 2 assessed as dissociation constant by isothermal titration calorimetry assay
REH = test: Anticancer activity against human REH cells assessed as cell growth inhibition by CellTiter-Glo luminescent assay; format: functional, cell-based
HAL-01 = test: Anticancer activity against human HAL-01 cells assessed as cell growth inhibition by CellTiter-Glo luminescent assay; format: functional, cell-based
[8] = target: T3, Protein deacetylase HDAC6 (Homo sapiens, UniProt Q9UBN7); test: Inhibition of human recombinant HDAC6 assessed as fluorescence using fluorogenic substrate ZMAL incubated for 90 min by microplate reader
T3 sequence (Q9UBN7 whole entry): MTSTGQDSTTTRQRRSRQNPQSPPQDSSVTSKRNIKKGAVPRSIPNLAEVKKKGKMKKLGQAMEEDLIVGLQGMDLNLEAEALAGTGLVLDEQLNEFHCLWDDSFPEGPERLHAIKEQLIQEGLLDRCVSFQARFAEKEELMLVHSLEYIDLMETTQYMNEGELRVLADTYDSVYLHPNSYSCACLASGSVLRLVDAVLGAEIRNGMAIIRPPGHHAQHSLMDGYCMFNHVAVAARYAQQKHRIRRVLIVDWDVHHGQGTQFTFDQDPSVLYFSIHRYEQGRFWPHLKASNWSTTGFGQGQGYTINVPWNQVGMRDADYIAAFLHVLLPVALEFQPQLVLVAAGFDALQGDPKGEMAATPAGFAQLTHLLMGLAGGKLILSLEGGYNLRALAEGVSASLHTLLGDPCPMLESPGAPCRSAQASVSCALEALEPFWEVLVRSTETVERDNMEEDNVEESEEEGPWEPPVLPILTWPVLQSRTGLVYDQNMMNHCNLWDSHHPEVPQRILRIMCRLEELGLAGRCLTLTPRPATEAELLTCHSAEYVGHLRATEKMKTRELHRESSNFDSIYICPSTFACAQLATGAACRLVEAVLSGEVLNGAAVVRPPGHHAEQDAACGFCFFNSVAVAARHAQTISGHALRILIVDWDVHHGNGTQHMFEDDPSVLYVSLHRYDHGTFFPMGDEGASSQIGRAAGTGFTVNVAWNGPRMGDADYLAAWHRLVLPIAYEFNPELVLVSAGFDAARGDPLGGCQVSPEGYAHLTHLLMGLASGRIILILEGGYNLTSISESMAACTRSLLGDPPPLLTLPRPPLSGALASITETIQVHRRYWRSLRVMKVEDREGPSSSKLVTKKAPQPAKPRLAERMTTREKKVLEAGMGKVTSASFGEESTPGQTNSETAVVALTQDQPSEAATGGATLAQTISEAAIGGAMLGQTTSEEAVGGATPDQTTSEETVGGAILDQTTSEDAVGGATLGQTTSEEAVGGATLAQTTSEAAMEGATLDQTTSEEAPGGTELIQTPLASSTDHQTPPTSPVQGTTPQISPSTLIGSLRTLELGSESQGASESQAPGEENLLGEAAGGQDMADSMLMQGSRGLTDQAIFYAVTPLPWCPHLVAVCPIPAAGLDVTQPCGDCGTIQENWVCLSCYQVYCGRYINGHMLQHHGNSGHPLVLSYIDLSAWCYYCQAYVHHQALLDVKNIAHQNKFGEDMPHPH

[9] = target: T2, Histone deacetylase (Homo sapiens); test: Inhibition of HDAC in human K562 cells assessed as increase in acetylated alpha-tubulin measured after 48 hrs by Western blot analysis; format: cell-based
Histone deacetylase 1 = Histone deacetylase 1 (Homo sapiens, UniProt Q13547); test: Inhibition of human recombinant HDAC1 assessed as fluorescence using fluorogenic substrate ZMAL incubated for 90 min by microplate reader
Sequence of Histone deacetylase 1 (Q13547 whole entry): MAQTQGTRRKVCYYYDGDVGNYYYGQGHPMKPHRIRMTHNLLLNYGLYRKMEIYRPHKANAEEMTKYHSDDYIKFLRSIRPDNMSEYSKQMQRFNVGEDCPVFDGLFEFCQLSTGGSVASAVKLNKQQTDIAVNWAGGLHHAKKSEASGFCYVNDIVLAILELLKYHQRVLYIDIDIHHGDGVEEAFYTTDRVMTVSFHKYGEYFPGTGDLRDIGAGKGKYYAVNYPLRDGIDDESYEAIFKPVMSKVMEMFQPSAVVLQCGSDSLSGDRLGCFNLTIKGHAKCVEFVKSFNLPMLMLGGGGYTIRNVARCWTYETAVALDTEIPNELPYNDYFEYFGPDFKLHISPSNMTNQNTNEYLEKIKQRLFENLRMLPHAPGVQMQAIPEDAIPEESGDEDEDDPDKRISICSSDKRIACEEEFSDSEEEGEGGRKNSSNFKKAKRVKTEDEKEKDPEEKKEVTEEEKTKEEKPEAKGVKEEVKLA

HPBALL [10] = test: Anticancer activity against human HPBALL cells assessed as cell growth inhibition by CellTiter-Glo luminescent assay; format: functional, cell-based
HL-60 [11] = test: Anticancer activity against human HL-60 cells assessed as cell growth inhibition by CellTiter-Glo luminescent assay; format: functional, cell-based
[12] = target: T4, Bromodomain-containing protein 7 (Homo sapiens, UniProt Q9NPI1); test: Binding affinity to human BRD7 assessed as dissociation constant by isothermal titration calorimetry assay
T4 sequence (Q9NPI1 whole entry): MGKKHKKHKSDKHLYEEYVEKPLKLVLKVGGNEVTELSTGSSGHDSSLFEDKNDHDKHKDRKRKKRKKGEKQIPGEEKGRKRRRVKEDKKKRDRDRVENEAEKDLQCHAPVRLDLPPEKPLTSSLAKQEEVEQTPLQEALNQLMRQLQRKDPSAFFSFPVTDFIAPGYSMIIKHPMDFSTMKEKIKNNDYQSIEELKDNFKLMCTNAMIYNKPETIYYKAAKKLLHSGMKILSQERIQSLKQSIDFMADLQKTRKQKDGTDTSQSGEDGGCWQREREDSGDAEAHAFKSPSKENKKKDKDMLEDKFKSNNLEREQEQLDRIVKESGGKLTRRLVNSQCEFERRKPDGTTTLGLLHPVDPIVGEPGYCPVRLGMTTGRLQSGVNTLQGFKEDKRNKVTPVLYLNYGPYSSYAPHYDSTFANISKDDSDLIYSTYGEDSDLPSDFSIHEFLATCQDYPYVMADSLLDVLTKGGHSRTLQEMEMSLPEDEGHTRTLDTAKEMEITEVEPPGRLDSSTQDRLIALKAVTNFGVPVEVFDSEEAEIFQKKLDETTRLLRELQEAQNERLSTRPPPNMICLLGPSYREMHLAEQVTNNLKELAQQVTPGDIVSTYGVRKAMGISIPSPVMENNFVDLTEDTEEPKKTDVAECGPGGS

Compound | IC50 (Histone deacetylase 2) | Kd [1] | IC50 (TALL-1) | Activity (HPBALL [2]) | viability at 5 µM (HL-60 [3]) | IC50 (Histone deacetylase 3) | Kd [4] | Activity [5] | Activity (HPBALL [6]) | Kd [7] | IC50 (REH) | IC50 (HAL-01) | IC50 [8] | Activity [9] | IC50 (Histone deacetylase 1) | IC50 (HPBALL [10]) | IC50 (HL-60 [11]) | Kd [12] | inhibition (HPBALL [2])
Cc1[nH]c(C(=O)Nc2cc(S(=O)(=O)N3CCOCC3)ccc2OCCCCCCCC(=O)NO)c2c1C(=O)CCCC2 | 534 nM | 37 nM | 2930 nM | Active | 35.9% | 296 nM | 0.067 µM | Active | Active | 0.1 µM | 7.79 µM | 5.93 µM | 67 nM | Active | 163 nM | 7.13 µM | 2.75 µM | 125 nM | –
COc1ccc(S(=O)(=O)n2ccc(/C=C/C(=O)NO)c2)cc1NC(=O)c1[nH]c(C)c2c1CCCCC2=O | 208 nM | 1500 nM | 2330 nM | Active | 42.3% | 64 nM | 3.1 µM | Active | Active | 3.75 µM | 9.76 µM | 6.41 µM | 46 nM | Active | 93 nM | 6.31 µM | 4.63 µM | 230 nM | –
CCc1c(C(=O)Nc2cc(/C=C/C(=O)NO)ccc2OC)[nH]c(C)c1C(C)=O | 359 nM | 5650 nM | 2880 nM | – | 22.1% | 119 nM | 3.3 µM | Active | Active | 7.55 µM | > 25 µM | > 25 µM | 42 nM | Active | 179 nM | 6.79 µM | 7.82 µM | 8500 nM | Active
